ChEMBL document CHEMBL5143608, “Peptide-based long-acting co-agonists of GLP-1 and cholecystokinin 1 receptors as novel anti-diabesity agents” (Eur J Med Chem, 2022)
Active and inactive are the calls of the source. No cut-off for these calls is given here. *1 amine or outer side, *2 acyl side, *3 side chain or, on linkers, in order; H or OH if unused. Where a SMILES comes first, the peptide text is derived from it. Side-chain parts run from the residue outwards. [ ]: non-standard residue; d: D form. The star is where a group is joined. γGlu = O=C(O)[C@H](CCC(=O)[*:2])N[*:1]; Palmitoyl = CCCCCCCCCCCCCCCC(=O)*; Aib = CC(C)(N)C(=O)O

Experiments:
[1] = system: Mus musculus; assay: Anti-diabesity activity against db/db mouse assessed as reduction in HbA1c level at 25 nmol/kg, sc administered every 2 days and measured on day 43; type: functional, organism-based; conditions: time 43.0 day
[2] = system: Mus musculus; assay: Anti-diabesity activity against db/db mouse assessed as reduction in fasting blood glucose level at 25 nmol/kg, sc administered every 2 days for 12 weeks; type: functional, organism-based
[3] = system: Mus musculus; assay: Hypoglycemic activity in db/db mouse assessed as improvement in glucose tolerance at 25 nmol/kg, ip administered 30 min before oral glucose administration and measured upto 120 mins by OGTT; type: functional, organism-based
[4] = system: Mus musculus; assay: Hypoglycemic activity in db/db mouse assessed as reduction in glucose excursion at 25 nmol/kg, ip administered 30 min before oral glucose administration and measured upto 120 mins by OGTT; type: functional, organism-based
[5] = system: Mus musculus; assay: Insulinotropic activity in db/db mouse assessed as elevation of plasma insulin level at 25 nmol/kg, ip administered 30 min before oral glucose administration and measured upto 60 mins by ELISA; type: functional, organism-based; conditions: time <= 90.0 min
[6] = system: Mus musculus; assay: Anti-diabesity activity in DIO C57BL/6 mouse assessed as reduction in body weight at 10 nmol/kg, sc administered every 2 days for 10 days; type: functional; conditions: time 10.0 day
[7] = system: Mus musculus; assay: Anti-diabesity activity in DIO C57BL/6 mouse assessed as reduction in body weight at 25 nmol/kg, sc administered every 2 days for 10 days; type: functional; conditions: time 10.0 day
[8] = system: Mus musculus; assay: Anti-diabesity activity in DIO C57BL/6 mouse assessed as improvement in insulin sensitivity at 25 nmol/kg, sc administered every 2 days for 10 days by insulin tolerance test; type: functional, organism-based; conditions: time 10.0 day
[9] = system: Mus musculus; assay: Anti-diabesity activity against DIO C57BL/6 mouse assessed as reduction in body weight at 25 nmol/kg, sc administered every 2 days for 3 weeks; type: functional; conditions: time 21.0 day
[10] = system: Mus musculus; assay: Anti-diabesity activity against DIO C57BL/6 mouse assessed as reduction in cumulative food intake at 25 nmol/kg, sc administered every 2 days for 3 weeks; type: functional, organism-based; conditions: time 21.0 day
[11] = system: Mus musculus; assay: Anti-diabesity activity against DIO C57BL/6 mouse assessed as decrease in fat mass at 25 nmol/kg, sc administered every 2 days for 3 weeks; type: functional, organism-based; conditions: time 21.0 day
[12] = system: Mus musculus; assay: Anti-diabesity activity against DIO C57BL/6 mouse assessed as reduction in fasted blood glucose level at 25 nmol/kg, sc administered every 2 days for 3 weeks; type: functional, organism-based; conditions: time 21.0 day
[13] = system: Mus musculus; assay: Anti-diabesity activity against DIO C57BL/6 mouse assessed as improvement in glucose tolerance at 25 nmol/kg, sc administered every 2 days for 3 weeks by OGTT; type: functional, organism-based; conditions: time 21.0 day
[14] = system: Mus musculus; assay: Anti-diabesity activity against DIO C57BL/6 mouse assessed as reduction in cholesterol level in serum at 25 nmol/kg, sc administered every 2 days for 3 weeks; type: functional, organism-based; conditions: time 21.0 day
[15] = system: Mus musculus; assay: Anti-diabesity activity against DIO C57BL/6 mouse assessed as reduction in triglycerides level in serum at 25 nmol/kg, sc administered every 2 days for 3 weeks; type: functional, organism-based; conditions: time 21.0 day
[16] = system: Mus musculus; assay: Anti-diabesity activity against db/db mouse assessed as reduction in body weight at 25 nmol/kg, sc administered every 2 days for 3 weeks; type: functional, organism-based; conditions: time 21.0 day
[17] = system: Mus musculus; assay: Anti-diabesity activity against db/db mouse assessed as reduction in cumulative food intake at 25 nmol/kg, sc administered every 2 days for 3 weeks; type: functional, organism-based; conditions: time 21.0 day
[18] = system: Mus musculus; assay: Anti-diabesity activity against db/db mouse assessed as reduction in fasted blood glucose level at 25 nmol/kg, sc administered every 2 days for 3 weeks; type: functional, organism-based; conditions: time 21.0 day
[19] = system: Mus musculus; assay: Anti-diabesity activity against db/db mouse assessed as increase in islet area at 25 nmol/kg, sc administered every 2 days for 3 weeks by H and E staining based analysis; type: functional, organism-based; conditions: time 21.0 day
[20] = system: Mus musculus; assay: Anti-diabesity activity against db/db mouse assessed as increase in islet number at 25 nmol/kg, sc administered every 2 days for 3 weeks by H and E staining based analysis; type: functional, organism-based; conditions: time 21.0 day
[21] = system: Mus musculus; assay: Anti-diabesity activity against db/db mouse assessed as enhanced islets insulin content at 25 nmol/kg, sc administered every 2 days for 3 weeks by immunohistochemistry staining; type: functional, organism-based; conditions: time 21.0 day
[22] = system: Mus musculus; assay: Anti-diabesity activity against db/db mouse assessed as improvement in glucose tolerance at 25 nmol/kg, sc administered every 2 days for 12 weeks by OGTT; type: functional, organism-based
[23] = system: Mus musculus; assay: Anti-diabesity activity in DIO C57BL/6 mouse assessed as reduction in body weight at 100 nmol/kg, sc administered every 2 days for 10 days; type: functional; conditions: time 10.0 day
[24] = system: BRIN-BD11; assay: Insulinotropic activity in rat BRIN-BD11 cells assessed as increase in insulin secretion incubated for 20 mins by radioimmunoassay; type: functional, cell-based; conditions: DDE = dose-dependent effect
[25] = system: Mus musculus; assay: Anti-diabesity activity against db/db mouse assessed as HbA1c level at 25 nmol/kg, sc administered every 2 days for 3 weeks; type: functional, organism-based; conditions: time 21.0 day
[26] = system: Mus musculus; assay: Anti-diabesity activity against db/db mouse assessed as improvement in glucose tolerance at 25 nmol/kg, sc administered every 2 days for 3 weeks by OGTT; type: functional, organism-based; conditions: time 21.0 day
[27] = system: Mus musculus; assay: Anti-diabesity activity against db/db mouse assessed as reduction in HbA1c level at 25 nmol/kg, sc administered every 2 days for 12 weeks; type: functional, organism-based
[28] = system: Mus musculus; assay: Anti-diabesity activity against db/db mouse assessed as improvement in glucose tolerance level at 25 nmol/kg, sc administered every 2 days for 6 weeks followed by saline treatment for 6 weeks and measured during first 6 weeks by OGTT; type: functional, organism-based
[29] = system: Mus musculus; assay: Anti-diabesity activity against db/db mouse assessed as reduction in fasting blood glucose level at 25 nmol/kg, sc administered every 2 days for 6 weeks followed by saline treatment for 6 weeks and measured during first 6 weeks; type: functional, organism-based
[30] = system: Mus musculus; assay: Anti-diabesity activity against db/db mouse assessed as improvement in glucose tolerance level at 25 nmol/kg, sc administered every 2 days for 6 weeks followed by saline treatment for 6 weeks and measured during second 6 weeks by OGTT; type: functional, organism-based
[31] = system: Mus musculus; assay: Anti-diabesity activity against db/db mouse assessed as reduction in fasting blood glucose level at 25 nmol/kg, sc administered every 2 days for 6 weeks followed by saline treatment for 6 weeks and measured during second 6 weeks; type: functional, organism-based
[32] = system: Mus musculus; assay: Anti-diabesity activity against db/db mouse assessed as reduction in HbA1c level at 25 nmol/kg, sc administered every 2 days for 6 weeks followed by saline treatment for 6 weeks and measured during first 6 weeks; type: functional, organism-based
[33] = system: Mus musculus; assay: Anti-diabesity activity against db/db mouse assessed as reduction in HbA1c level at 25 nmol/kg, sc administered every 2 days for 6 weeks followed by saline treatment for 6 weeks and measured during second 6 weeks; type: functional, organism-based
[34] = system: Mus musculus; assay: Anti-diabesity activity against db/db mouse assessed as increase in insulin sensitivity by measuring reduction in plasma insulin level at 25 nmol/kg, sc administered every 2 days for 12 weeks by ELISA; type: functional, organism-based
[35] = system: Mus musculus; assay: Anti-diabesity activity against db/db mouse assessed as increase in pancreas mass at 25 nmol/kg, sc administered every 2 days for 12 weeks; type: functional, organism-based
[36] = system: Mus musculus; assay: Anti-diabesity activity against db/db mouse assessed as increase in IOD of insulin in pancreas at 25 nmol/kg, sc administered every 2 days for 12 weeks by immunohistochemistry; type: functional, organism-based
[37] = system: Mus musculus; assay: Anti-diabesity activity against high fat diet-induced DIO C57BL/6 mouse model assessed as decrease in body weight at 25 nmol/kg, sc administered for 2 weeks; type: functional; conditions: C57BL/6, 336 h, time 14 day
[38] = system: Mus musculus; assay: Anti-diabesity activity against high fat diet-induced DIO C57BL/6 mouse model assessed as reduction in food intake at 25 nmol/kg, sc administered for 2 weeks; type: functional, organism-based; conditions: time 14.0 day
[39] = system: Mus musculus; assay: Anti-diabesity activity against high fat diet-induced DIO C57BL/6 mouse model assessed as reduction in fat mass accumulation at 25 nmol/kg, sc administered for 2 weeks and measured on day 15 by NMR analysis; type: functional, organism-based; conditions: time 15.0 day
[40] = system: Mus musculus; assay: Hypoglycemic activity in ICR mouse assessed as improvement in glucose tolerance at 25 nmol/kg, ip administered 30 min before oral glucose administration and measured upto 120 mins by OGTT; type: functional, organism-based
[41] = system: Mus musculus; assay: Anorectic activity in ICR mouse assessed as decrease in food intake at 25 nmol/kg, ip and measured after 9 hrs; type: functional, organism-based
[42] = system: Mus musculus; assay: Anorectic activity in ICR mouse assessed as decrease in food intake at 25 nmol/kg, ip and measured after 24 hrs; type: functional, organism-based
[43] = Pancreatic insult activity in db/db mouse assessed as increase in lipase level in serum at 25 nmol/kg, sc administered every 2 days for 12 weeks; type: toxicity, organism-based; conditions: in vivo, 2016 h
[44] = Pancreatic insult activity in db/db mouse assessed as increase in amylase level in serum at 25 nmol/kg, sc administered every 2 days for 12 weeks; type: toxicity, organism-based; conditions: in vivo, 2016 h

## SEMAGLUTIDE [listing 1 of 2 here]
[1]
  Activity: Active
[2]
  Activity: Active
[3]
  Activity: Active
[4]
  Activity: Active
[5]
  Activity: Active
[6]
  inhibition: 8.2%
[7]
  inhibition: 12.5%
[8]
  Activity: Active
[9]
  inhibition: 14.9%
[10]
  Activity: Active
[11]
  Activity: Active
[12]
  Activity: Active
[13]
  Activity: Active
[14]
  Activity: Active
[15]
  Activity: Active
[16]
  Activity: Active
[17]
  Activity: Active
[18]
  Activity: Active
[19]
  Activity: Active
[20]
  Activity: Active
[21]
  Activity: Active
[22]
  Activity: Active
[23]
  inhibition: 17.3%
[24]
  Activity: Dde
[25]
  Activity: Active
[26]
  Activity: Active
[27]
  Activity: Active
[28]
  Activity: Active
[29]
  Activity: Active
[30]
  Activity: Active
[31]
  Activity: Active
[32]
  Activity: Active
[33]
  Activity: Active
[34]
  Activity: Active
[35]
  Activity: Active
[36]
  Activity: Active

## CCCCCCCCCCCCCCCC(=O)N[C@@H](CCC(=O)NCCCC[C@H](NC(=O)[C@H](C)NC(=O)[C@H](C)NC(=O)[C@H](CCC(=O)O)NC(=O)[C@H](CCC(=O)O)NC(=O)[C@H](CCC(=O)O)NC(=O)[C@H](CC(C)C)NC(=O)[C@@H](NC(=O)[C@H](CCC(=O)O)NC(=O)[C@@H](NC(=O)[C@@H](NC(=O)[C@H](CC(=O)O)NC(=O)[C@H](CC(N)=O)NC(=O)[C@@H](NC(=O)[C@H](Cc1ccc(O)cc1)NC(=O)[C@@H](NC(=O)CNC(=O)[C@H](CCC(=O)O)NC(=O)C(C)(C)NC(=O)[C@@H](N)Cc1cnc[nH]1)[C@@H](C)O)[C@@H](C)O)C(C)C)[C@@H](C)O)[C@@H](C)O)C(=O)N[C@@H](CCC(=O)O)C(=O)N[C@@H](Cc1ccccc1)C(=O)N[C@H](C(=O)N[C@@H](CCC(=O)O)C(=O)N[C@@H](Cc1c[nH]c2ccccc12)C(=O)N[C@@H](CC(C)C)C(=O)N[C@H](C(=O)N[C@@H](CCCCN)C(=O)NCC(=O)N[C@@H](CCCCN)C(N)=O)[C@@H](C)CC)[C@@H](C)CC)C(=O)O (H-H[Aib]EGTYTNDVTETLEEEAAK([γGlu-Palmitoyl])EFIEWLIKGK-NH2)
[37]
  inhibition in vivo at 0.025 µmol/kg: 12.1%
[38]
  Activity: Active
[39]
  Activity: Active
[40]
  Activity: Active
[41]
  Activity: Active
[42]
  Activity: Active

## SEMAGLUTIDE [listing 2 of 2 here]
[43]
  Activity: Toxic
[44]
  Activity: Toxic

## CCCCCCCCCCCCCCCC(=O)N[C@@H](CCC(=O)NCCCC[C@H](NC(=O)[C@H](C)NC(=O)[C@H](C)NC(=O)[C@H](CCC(N)=O)NC(=O)CNC(=O)[C@H](CCC(=O)O)NC(=O)[C@H](CC(C)C)NC(=O)[C@H](Cc1ccc(O)cc1)NC(=O)[C@H](CO)NC(=O)[C@H](CO)NC(=O)[C@@H](NC(=O)[C@H](CC(=O)O)NC(=O)[C@H](CO)NC(=O)[C@@H](NC(=O)[C@H](Cc1ccccc1)NC(=O)[C@@H](NC(=O)CNC(=O)[C@H](CCC(=O)O)NC(=O)[C@H](C)NC(=O)[C@@H](N)Cc1cnc[nH]1)[C@@H](C)O)[C@@H](C)O)C(C)C)C(=O)N[C@@H](CCC(=O)O)C(=O)N[C@@H](Cc1ccccc1)C(=O)N[C@H](C(=O)N[C@@H](C)C(=O)N[C@@H](Cc1c[nH]c2ccccc12)C(=O)N[C@@H](CC(C)C)C(=O)N[C@H](C(=O)N[C@@H](CCCNC(=N)N)C(=O)NCC(=O)N[C@@H](CCCNC(=N)N)C(=O)NCC(=O)O)C(C)C)[C@@H](C)CC)C(=O)O [LIRAGLUTIDE]
[37]
  inhibition in vivo at 0.025 µmol/kg: 9.8%
